Reference: US9366676B2, “Fluorescent chemical compounds having high selectivity for double stranded DNA, and methods for their use” (LIFE TECHNOLOGIES CORPORATION, priority 2005, dated 2016)

Key:
[1] = system: Jurkat cells (human T-lymphocyte); assay: Flow cytometry cell cycle staining, live Jurkat cells; type: cell-based; conditions: 5 μM, 37° C., 60 minutes, ModFit
Procedure: Live Jurkat cells (human T-lymphocyte) were suspended at 1×10^6 cells/ml in RPMI media with 10% Fetal Bovine Serum (FBS). 5 μM Compound (20) was added to one mL cell suspension, and incubated at 37° C. for 60 minutes protected from light. Cells were processed using a Becton Dickinson (BD) LSRII Flow Cytometer. A Forward Scatter (FS) vs Side Scatter (SS) dual parameter plot was used to gate main cell population. On gated cells, a dual-parameter plot of Fluorescence-Width vs Fluorescence-Area was used for single cell discrimination gating. Single color fluorescence was collected at 530/30 bandpass using the 488 nm excitation laser, collecting 30,000 events at flow rate of about 200 events/second. The data was further analyzed using ModFit LT Flow Cytometry Modeling Software from Verity Software House, Inc. to determine the ratio of G2/G1 and the CV of G1 phase.

[2] = system: calf thymus double stranded DNA and ribosomal RNA; assay: Determination of DNA/RNA fluorescence ratios; type: binding; conditions: for DNA/RNA (fluorescence ratio): 65 ug/mL calf thymus dsDNA vs 65 ug/mL ribosomal RNA, 10 mM Tris, 1 mM EDTA pH 7.5, ratio of 1 = no selectivity; for ex/em: emission: emission value, second number of ex/em cell; for ex/em: excitation: excitation value, first number of ex/em cell
Procedure: The tested compound was dissolved as a stock solution in DMSO at a concentration of about 0.1-1.0 mg/mL. The exact concentration is not critical. Three tubes are prepared, each containing the same 1-20 uL of stock solution. The first tube contained 10 mM Tris, 1 mM EDTA (pH 7.5) buffer; the second tube contained buffer and 65 ug/mL calf thymus double stranded DNA; and the third tube contained buffer and 65 ug/mL ribosomal RNA. The tubes were incubated at room temperature for 10-15 minutes with protection from light.
In some cases, it was necessary to dilute the sample to keep the fluorescence signal on-scale. In these cases, all three samples were diluted to the same degree. The ratio of the fluorescence of the compound in the presence of DNA and RNA was determined.
The following compounds were selected as representative of the inventive class of compounds. The fluorescence values in the presence of DNA and RNA were determined as described in the previous Example. […] A ratio of 1 would indicate no selectivity. Excitation and emission values are in nm

DNA = conditions: cited from earlier work

Row | SMILES | DNA/RNA (fluorescence ratio) [2] | ex/em: emission [2] [nm] | ex/em: excitation [2] [nm] | also measured
1 | COc1cccc(OC)c1-c1ccc2c(c1)sc(C=C1C=C(N3CCN(C)CC3)N(Cc3ccccc3)c3ccccc31)[n+]2C [Compound 20] | 4 | 536 | 510 | G1-phase ([1]; 488 nm excitation, 530/30 bandpass): 47.08%; G2-phase [1]: 6.25%; G2/G1 ratio [1]: 1.83; S-phase [1]: 46.67%
2 | CCCN(CCCN(C)C)C1=CC(=Cc2sc3cc(-c4c(C)cccc4C)ccc3[n+]2C)c2ccccc2N1c1ccccc1 [Compound 68] | 7 | 523 | 498 | 
3 | Cc1cccc(C)c1-c1ccc2c(c1)sc(C=C1C=C(N(C)CCCN(C)C)N(c3ccccc3)c3ccccc31)[n+]2C [Compound 69] | 3.2 | 523 | 494 | 
4 | C[n+]1c(C=C2C=CN(Cc3ccccc3)c3ccccc32)sc2cc(-c3cccnc3)ccc21 [Compound 97] | 3.7 | 538 | 513 | 
5 | COc1cccc(OC)c1-c1ccc2c(c1)sc(/C=C1\C=C(N(C)CCCC(=O)NCCOCCOCCOCCO)N(Cc3ccccc3)c3ccccc31)[n+]2C [Compound 111] | 64 | 527 | 497 | 
6 | CCCN(CCCN(C)C)C1=CC(=Cc2sc3cc(-c4c(OC)cccc4OC)ccc3[n+]2C)c2ccccc2N1c1ccccc1 [Compound 28] | 6.5 | 527 | 497 | 
7 | COc1cccc(OC)c1-c1ccc2c(c1)sc(C=C1C=CN(Cc3ccc(C[N+](C)(C)C)cc3)c3ccccc31)[n+]2C [Compound 48] | 7.3 | 540 | 513 | 
8 | CCN(CC)Cc1ccc(C2=CC(=Cc3sc4cc(-c5ccccc5)ccc4[n+]3C)c3ccccc3N2c2ccccc2)cc1 [Compound 91] | 1.5 | 563 | 522 | 
9 | C[n+]1c(C=C2C=CN(Cc3ccccc3)c3ccccc32)sc2cc(-c3ccccc3)ccc21 [Compound 92] | 1 | 501 | 458 | 
10 | C[n+]1c(C=C2C=CN(Cc3ccccc3)C(c3ccccc3)=C2)sc2cc(-c3ccccc3)ccc21 [Compound 93] | 1.5 | 514 | 466 | 
11 | CCCN(CCCN(C)C)C1=CC(=Cc2sc3cc(-c4c(OC)cccc4OC)ccc3[n+]2C)c2ccc(OC)cc2N1Cc1ccccc1 [Compound 38] | 13 | 522 | 497 | 
12 | CCN(CC)Cc1ccc(C2=CC(=Cc3sc4cc(-c5c(OC)cccc5OC)ccc4[n+]3C)c3ccccc3N2Cc2ccccc2)cc1 [Compound 25] | 9 | 559 | 518 | 
13 | COc1cccc(OC)c1-c1ccc2c(c1)sc(C=C1C=CN(C)c3ccccc31)[n+]2C [Compound 65] | 11.3 | 536 | 506 | 
14 | COc1cccc(OC)c1-c1ccc2c(c1)sc(C=C1C=CN(Cc3ccc(C[N+](C)(C)CCC[N+](C)(C)C)cc3)c3ccccc31)[n+]2C [Compound 49] | 18 | 542 | 520 | 
15 | COc1cccc(OC)c1-c1ccc2c(c1)sc(C=C1C=CN(Cc3cc[n+](C)cc3)c3ccccc31)[n+]2C [Compound 56] | 3.7 | 545 | 515 | 
16 | CCCN(CCCN(C)C)C1=CC(=Cc2sc3cc(-c4c(OC)cccc4OC)ccc3[n+]2C)c2ccccc2N1Cc1ccccc1 [Compound 16] | 15.2 | 532 | 504 | 
17 | COc1cccc(OC)c1-c1ccc2c(c1)sc(C=C1C=CN(Cc3ccccc3)C(SCCCN(C)C)=C1)[n+]2C [Compound 102] | 3.3 | 515 | 475 | 

Row | SMILES | DNA/RNA (fluorescence ratio) [2] | ex/em: emission [2] [nm] | ex/em: excitation [2] [nm] | also measured
18 | C[n+]1c(C=C2C=CN(Cc3ccccc3)c3ccccc32)oc2ccc(-c3ccccc3)cc21 [Compound 89] | 1.8 | 512 | 485 | 
19 | CCCN(CCCN(C)C)c1cc(/C=C2/Sc3ccccc3N2C)c2ccccc2[n+]1-c1ccccc1 [SYBR Green I] |  |  |  | fluorescence enhancement upon binding to DNA, relative to ethidium bromide (DNA): at least 10 fold; fluorescence quantum yield (DNA): about 0.8
20 | CN1C(=Cc2cc[n+](C)c3ccccc23)Sc2ccccc21 [Thiazole orange, reference compound] | 1 | 530 | 510 | 
21 | COc1cccc(OC)c1-c1ccc2c(c1)sc(C=C1C=CN(Cc3ccncc3)c3ccccc31)[n+]2C [Compound 55] | 10.9 | 541 | 513 | 
22 | C[n+]1c(C=C2C=CN(Cc3ccccc3)c3ccccc32)sc2cc(-c3ccc(O)cc3)ccc21 [Compound 100] | 8.1 | 551 | 513 | 
23 | COC1=CC(=Cc2sc3cc(-c4c(OC)cccc4OC)ccc3[n+]2C)c2ccccc2N1Cc1ccccc1 [Compound 32] | 36 | 517 | 498 | 
24 | COc1cccc(OC)c1-c1ccc2c(c1)sc(C=C1C=CN(Cc3ccc(CN4CCOCC4)cc3)c3ccccc31)[n+]2C [Compound 45] | 13.2 | 541 | 511 | 
25 | C[n+]1cccc(-c2ccc3c(c2)sc(C=C2C=CN(Cc4ccccc4)c4ccccc42)[n+]3C)c1 [Compound 99] | 1.3 | 534 | 511 | 
26 | COc1cccc(OC)c1-c1ccc2c(c1)sc(C=C1C=CN(Cc3ccc(CN(C)CCCN(C)C)cc3)c3ccccc31)[n+]2C [Compound 47] | 8.6 | 541 | 512 | 
27 | Cc1cccc(C)c1-c1ccc2c(c1)sc(C=C1C=C(N(C)CCCN(C)C)N(Cc3ccccc3)c3ccccc31)[n+]2C [Compound 70] | 2.7 | 524 | 501 | 
28 | COc1cccc(OC)c1-c1ccc2c(c1)sc(/C=C1\C=C(N(C)CCCC(=O)O)N(Cc3ccccc3)c3ccccc31)[n+]2C [Compound 109] | 121 | 525 | 496 | 
29 | COc1cccc(OC)c1-c1ccc2c(c1)sc(C=C1C=C(n3ccnc3)N(Cc3ccccc3)c3ccccc31)[n+]2C [Compound 19] | 7.3 | 553 | 525 | 
30 | CCCN(CCCN(C)C)C1=CC(=Cc2sc3cc(-c4c(OC)cccc4OC)ccc3[n+]2C)c2cc(OC)ccc2N1Cc1ccccc1 [Compound 39] | 6.1 | 536 | 507 | 
31 | COc1cccc(OC)c1-c1ccc2c(c1)sc(C=C1C=C(N3CCNCC3)N(Cc3ccccc3)c3ccccc31)[n+]2C [Compound 21] | 5.4 | 534 | 510 | 
32 | CCCN(CCC[N+](C)(C)C)C1=CC(=Cc2sc3cc(-c4c(OC)cccc4OC)ccc3[n+]2C)c2ccccc2N1Cc1ccccc1 [Compound 31] | 10.5 | 534 | 505 | 
33 | COc1cccc(OC)c1-c1ccc2c(c1)sc(C=C1C=CN(Cc3ccc(CN4CCN(C)CC4)cc3)c3ccccc31)[n+]2C [Compound 44] | 22 | 540 | 510 | 
